Experimental data published in ChEMBL document CHEMBL1687928, “Discovery, optimization, and pharmacological characterization of novel heteroaroylphenylureas antagonists of C-C chemokine ligand 2 function” (J Med Chem, 2011).
In brackets after ≈: the same amount, converted by molar mass. Activity calls are given as the source filed them. The rule behind the calls is not given here.

What was measured:
[1] = Aqueous solubility of the compound at pH 1.2; assay type: physicochemical
[2] = Aqueous solubility of the compound at pH 7.4; assay type: physicochemical
THP-1 = experiment: Cytotoxicity against human THP1 cells; assay type: cell-based
[3] = target: C-C chemokine receptor type 2 (Homo sapiens) (UniProt P41597); assay type: cell-based; conditions: THP-1
[4] = target: C-C chemokine receptor type 2 (Homo sapiens) (UniProt P41597); assay type: cell-based; conditions: HEK293
[5] = target: T1, C-X-C chemokine receptor type 1 (Homo sapiens) (UniProt P25024); assay type: cell-based; conditions: neutrophils
T1 sequence (whole entry): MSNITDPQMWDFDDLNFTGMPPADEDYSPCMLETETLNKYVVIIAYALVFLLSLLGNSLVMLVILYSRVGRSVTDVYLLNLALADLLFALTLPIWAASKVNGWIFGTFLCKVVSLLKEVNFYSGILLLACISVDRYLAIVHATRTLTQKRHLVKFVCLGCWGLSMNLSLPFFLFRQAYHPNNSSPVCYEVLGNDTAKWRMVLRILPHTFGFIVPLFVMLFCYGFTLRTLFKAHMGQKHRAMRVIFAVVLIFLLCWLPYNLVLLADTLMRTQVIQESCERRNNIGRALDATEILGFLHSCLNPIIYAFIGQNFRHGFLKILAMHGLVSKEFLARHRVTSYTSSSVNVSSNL

[6] = target: T2, C5a anaphylatoxin chemotactic receptor 1 (Homo sapiens) (UniProt P21730); assay type: cell-based; conditions: CHO
T2 sequence (whole entry): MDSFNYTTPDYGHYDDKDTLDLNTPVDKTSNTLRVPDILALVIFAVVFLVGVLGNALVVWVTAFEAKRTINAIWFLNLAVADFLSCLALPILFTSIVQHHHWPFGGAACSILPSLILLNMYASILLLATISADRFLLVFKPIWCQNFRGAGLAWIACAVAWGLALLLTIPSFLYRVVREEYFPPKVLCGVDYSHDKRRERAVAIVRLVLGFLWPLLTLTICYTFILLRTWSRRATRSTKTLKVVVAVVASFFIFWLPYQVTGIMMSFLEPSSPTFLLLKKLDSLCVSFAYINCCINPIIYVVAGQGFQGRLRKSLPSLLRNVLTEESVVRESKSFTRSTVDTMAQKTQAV

[7] = target: T3, C-X-C chemokine receptor type 2 (Homo sapiens) (UniProt P25025); assay type: cell-based; conditions: neutrophils
T3 sequence (whole entry): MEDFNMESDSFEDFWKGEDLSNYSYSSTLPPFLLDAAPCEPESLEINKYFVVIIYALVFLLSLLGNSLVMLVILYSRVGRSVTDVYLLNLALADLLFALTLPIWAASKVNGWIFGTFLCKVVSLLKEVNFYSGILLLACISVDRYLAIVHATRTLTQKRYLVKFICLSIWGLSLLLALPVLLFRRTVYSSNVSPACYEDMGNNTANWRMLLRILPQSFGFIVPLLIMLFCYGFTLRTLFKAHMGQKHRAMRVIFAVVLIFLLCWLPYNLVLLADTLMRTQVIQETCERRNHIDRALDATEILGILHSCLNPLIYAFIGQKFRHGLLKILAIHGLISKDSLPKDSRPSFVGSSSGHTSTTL

C-C chemokine receptor type 2 (Homo sapiens), sequence (P41597 whole entry, looked up): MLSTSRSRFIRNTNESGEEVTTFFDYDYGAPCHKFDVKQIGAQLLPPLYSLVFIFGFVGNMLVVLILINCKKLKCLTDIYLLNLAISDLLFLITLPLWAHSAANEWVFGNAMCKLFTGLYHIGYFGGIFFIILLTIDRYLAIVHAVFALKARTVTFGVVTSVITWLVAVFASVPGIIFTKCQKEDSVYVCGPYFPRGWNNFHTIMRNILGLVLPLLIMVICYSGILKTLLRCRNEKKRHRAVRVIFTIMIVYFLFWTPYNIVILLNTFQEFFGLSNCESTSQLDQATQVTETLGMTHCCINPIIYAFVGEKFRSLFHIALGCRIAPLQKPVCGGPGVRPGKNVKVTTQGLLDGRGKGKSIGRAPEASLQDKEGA

solubility [1]: 3.9 µg/mL (≈ 9.87 µM)
solubility [2]: 5 µg/mL (≈ 12.6 µM)
Activity [3]: inactive
Activity [4]: inactive
Activity [5]: inactive
Activity [7]: inactive
Compound: Cc1nn(C)c2ncc(C(=O)NC(=O)Nc3ccc(F)c(C(F)(F)F)c3)cc12
CC50 (THP-1): > 50 µM
Activity [6]: inactive
